pKd: −log10 of the molar value. In brackets after ≈: the same amount, converted by molar mass. Residues, ends and D or L forms follow the SMILES beside them.
Key:
[1] = test system: E. coli CCUG 70662
Method: (§1) The bacterial strains tested were E. coli ATCC 25922, E. coli […], and E. coli NR-698. The MIC assays followed the CLSI guidelines. Overnight cultures and MIC assays were performed in MHBII (212322, Becton, Dickson and Company, Sparks, MD, USA). In addition, E. coli […] was tested after cultivation with 4 µg/mL of colistin to induce alternation in surface charge.
(§2) The antimicrobial activity of the five cyclic cationic AMPs was determined against S. aureus, P. aeruginosa, and three strains of E. coli: ATCC 25922, LPS colistin-resistant strain CCUG 70662, and LPS deficient strain NR 698 (Table 1). CCUG 70662 was cultivated in two conditions, both in the absence (−) and in the presence (+) of colistin (4 µg/mL). Resistance development can be monitored by measuring changes in the ζ-potential, reflecting the overall charge of the bacteria. […] In the NR 698 strain, translocation of LPS from the periplasmic space to the outer leaflet is hindered.

[2] = test system: E. coli NR 698; conditions: LPS deficient strain; CLSI guidelines, MHBII
Method: as §1, §2

[3] = test system: E. coli ATCC 25922 live cells; assay: Live cell NMR (1H signal attenuation on cell titration); format: binding; conditions: E. coli ATCC 25922 cells titrated into 1 mg/mL peptide, Tris buffer pH 7.4, 298 K; KD in estimated lipid concentration, Shortridge fit; read-out: KD from live cell NMR
Method: (§3) NMR spectra were acquired on a Bruker Avance III HD spectrometer operating at 600 MHz for ^1H, equipped with an inverse TCl cryo probe. All NMR spectra were acquired at 298 K using 5 mm tubes using standard pulse programs.
(§4) E. coli strains ATCC 25922, CCUG 70662, and NR 698 were grown until OD600 ≈ 0.6–0.8 in standard Lysogeny Broth at 37 °C from overnight colonies on agar plates. This allowed bacterial cultures to reach an exponential state of growth. CCUG 70662 was cultivated with and without 4 µg/mL of colistin in both agar and broth to allow for modification of the lipid A part of LPS [33]. After that, cells were carefully centrifuged by 6000× g for 10 min, the supernatant was discarded, and the cell pellet was resuspended in 10 mM Tris buffer with 100 mM NaCl and pH 7.4. The process was repeated two more times to wash out broth components and leftover colistin. […] The part of samples was diluted to OD = 1 in Tris buffer, and zeta potential was measured on Malvern Zetasizer Nano (Malvern Ins., Malvern, UK). […]
(§5) For the live cell NMR, the same E. coli strains as for the MIC testing (see above) were used. […] To measure the initial AMP:bacterial cell binding, we titrated an increasing number of cells into a known and fixed concentration of AMP and monitored the signal attenuation of the peptide (Figure 4A,B). […]

[4] = test system: E. coli NR 698 live cells; assay: as above; format: binding; conditions: E. coli NR 698 cells titrated into 1 mg/mL peptide, Tris buffer pH 7.4, 298 K; KD in estimated lipid concentration, Shortridge fit; read-out: KD from live cell NMR
Method: as §3, §4, §5

[5] = test system: S. aureus ATCC 9144; conditions: CLSI guidelines, MHBII; cited from earlier work
Method: Table 1 MIC and ζ potentials for the tested peptides against P. aeruginosa, S. aureus, and the three E. coli strains: ATCC 25922, LPS deficient—NR 698, and colistin-resistant CCUG 70662, which was tested after cultivation with (+) and without (−) 4 µg/mL of colistin, which caused a decrease of negative charge of the cell wall. MIC values for P. aeruginosa, S. aureus, and E. coli ATCC 25922 are rep | column: MIC (µg/mL) / S. aureus ATCC 9144

[6] = test system: P. aeruginosa ATCC 27853; conditions: CLSI guidelines, MHBII; cited from earlier work
Method: Table 1 MIC and ζ potentials for the tested peptides against P. aeruginosa, S. aureus, and the three E. coli strains: ATCC 25922, LPS deficient—NR 698, and colistin-resistant CCUG 70662, which was tested after cultivation with (+) and without (−) 4 µg/mL of colistin, which caused a decrease of negative charge of the cell wall. MIC values for P. aeruginosa, S. aureus, and E. coli ATCC 25922 are rep | column: MIC (µg/mL) / P. aeruginosa ATCC 27853

[7] = test system: E. coli ATCC 25922 lysate; assay: NMR line shape analysis with sonicated cell lysate; format: binding; conditions: ATCC 25922 lysate versus live cells
Method: as §3, §4, §5

[8] = test system: E. coli ATCC 25922; conditions: CLSI guidelines, MHBII; cited from earlier work
Method: Table 1 MIC and ζ potentials for the tested peptides against P. aeruginosa, S. aureus, and the three E. coli strains: ATCC 25922, LPS deficient—NR 698, and colistin-resistant CCUG 70662, which was tested after cultivation with (+) and without (−) 4 µg/mL of colistin, which caused a decrease of negative charge of the cell wall. MIC values for P. aeruginosa, S. aureus, and E. coli ATCC 25922 are rep | column: MIC (µg/mL) / E. coli ATCC 25922

N=C(N)NCCC[C@@H]1NC(=O)[C@H](Cc2c[nH]c3ccccc23)NC(=O)[C@H](CCCNC(=N)N)NC(=O)[C@H](Cc2c[nH]c3ccccc23)NC(=O)[C@H](CCCNC(=N)N)NC(=O)[C@H](Cc2c[nH]c3ccccc23)NC1=O [c(WRWRWR)] (HELM PEPTIDE1{W.R.W.R.W.R}$PEPTIDE1,PEPTIDE1,1:R1-6:R2$$$V2.0)
MIC E. coli CCUG 70662+ [1]: 32 µg/mL (≈ 31.2 µM)
MIC E. coli CCUG 70662− [1]: 16 µg/mL (≈ 15.6 µM)
MIC E. coli NR 698 [2]: 2 µg/mL (≈ 1.95 µM)
pKd [3]: 3.70 to 4.30
pKd [4]: < 3.30
MIC S. aureus ATCC 9144 [5]: 32 µg/mL (≈ 31.2 µM)
MIC P. aeruginosa ATCC 27853 [6]: 64 µg/mL (≈ 62.3 µM)
Increase in KD after sonication (lysate versus live cell ATCC 25922) [7]: two-fold
MIC E. coli ATCC 25922 [8]: 32 µg/mL (≈ 31.2 µM)

Reference: paper PMC10377513, “Goldilocks Dilemma: LPS Works Both as the Initial Target and a Barrier for the Antimicrobial Action of Cationic AMPs on E. coli” (Biomolecules, 2023)
